The structures appear in SMILES notation. In brackets after ≈: the same amount, converted by molar mass.

Series [1] has as its system Staphylococcus aureus. As to the kind of experiment: Antimicrobial activity against Staphylococcus aureus ATCC 25923 incubated for 18 hrs by twofold microdilution method. The class given is functional. On the technique in general: Dilution methods test growth across graded concentrations, often in twofold steps.
Series [2] can be described thus: Selectivity index, ratio of IC50 for cytotoxicity against chinese hamster V79 cells to IC50 for cytotoxicity against human SW620 cells. Format: toxicity, cell-based. As to conditions: V79 cells versus SW620 cells, read-out: Ratio IC50.
A short description of series [3]: Selectivity index, ratio of IC50 for cytotoxicity against human HaCaT cells to IC50 for cytotoxicity against human SW480 cells. The class given is toxicity, cell-based. The conditions noted are these: HaCaT cells versus SW480 cells, read-out: Ratio IC50.
Series [4] can be described thus: Selectivity index, ratio of IC50 for cytotoxicity against human HaCaT cells to IC50 for cytotoxicity against human A549 cells. Format: toxicity, cell-based. As to conditions: HaCaT cells versus A549 cells, read-out: Ratio IC50.
A short description of series [5]: Selectivity index, ratio of IC50 for cytotoxicity against human HaCaT cells to IC50 for cytotoxicity against human PC-3 cells. The class given is toxicity, cell-based. The conditions noted are these: HaCaT cells versus PC-3 cells, read-out: Ratio IC50.
Series [6] in a line: Selectivity index, ratio of IC50 for cytotoxicity against chinese hamster V79 cells to IC50 for cytotoxicity against human PC-3 cells. The class given is toxicity, cell-based. As to conditions: V79 cells versus PC-3 cells, read-out: Ratio IC50.
Series [7] has as its system Staphylococcus aureus. As to the kind of experiment: Antimicrobial activity against Staphylococcus aureus ATCC 6538 incubated for 18 hrs by twofold microdilution method. Format: functional.
For the next series, the system named is SW480. Nature of the series: Cytotoxicity against human SW480 cells incubated for 72 hrs by MTT assay. Format: functional, cell-based. The conditions noted are these: SW480, 72 h.
Series [8] is described as follows: Selectivity index, ratio of IC50 for cytotoxicity against chinese hamster V79 cells to IC50 for cytotoxicity against human A549 cells. The conditions noted are these: V79 cells versus A549 cells, read-out: Ratio IC50. Format: toxicity, cell-based.
The next series concerns A549. Nature of the series: Cytotoxicity against human A549 cells incubated for 72 hrs by MTT assay. The class given is functional, cell-based. The conditions noted are these: A549, 72 h. (In general: Formazan colour is commonly taken as a measure of viable cells.)
Series [9] in a line: Selectivity index, ratio of IC50 for cytotoxicity against human HaCaT cells to IC50 for cytotoxicity against human SW620 cells. The class given is toxicity, cell-based. As to conditions: HaCaT cells versus SW620 cells, read-out: Ratio IC50.
The test system of series [10] is Staphylococcus aureus. As to the kind of experiment: Antimicrobial activity against Staphylococcus aureus NCTC 4163 incubated for 18 hrs by twofold microdilution method. Format: functional.
Series [11] is described as follows: Cytotoxicity against chinese hamster V79 cells incubated for 72 hrs by MTT assay. The class given is toxicity, cell-based, Cricetulus griseus.
Series [12] concerns Staphylococcus epidermidis. As to the kind of experiment: Antimicrobial activity against Staphylococcus epidermidis ATCC 35984 incubated for 18 hrs by twofold microdilution method. The class given is functional.
Series [13] deals with Staphylococcus aureus. As to the kind of experiment: Antimicrobial activity against Staphylococcus aureus ATCC 29213 incubated for 18 hrs by twofold microdilution method. Format: functional.
The nature of series [14]: Selectivity index, ratio of IC50 for cytotoxicity against human HaCaT cells to IC50 for cytotoxicity against human MDA-MB-231 cells. The class given is toxicity, cell-based. The conditions noted are these: HaCaT cells versus MDA-MB-231 cells, read-out: Ratio IC50.
Series [15] can be described thus: Selectivity index, ratio of IC50 for cytotoxicity against chinese hamster V79 cells to IC50 for cytotoxicity against human SW480 cells. The class given is toxicity, cell-based. The conditions noted are these: V79 cells versus SW480 cells, read-out: Ratio IC50.
The test system of series [16] is Staphylococcus epidermidis. Nature of the series: Antimicrobial activity against Staphylococcus epidermidis ATCC 12228 incubated for 18 hrs by twofold microdilution method. Format: functional.
The next series relates to SW-620. Nature of the series: Cytotoxicity against human SW620 cells incubated for 72 hrs by MTT assay. Format: functional, cell-based. The conditions noted are these: SW-620, 72 h.
The next series deals with PC-3. As to the kind of experiment: Cytotoxicity against human PC-3 cells incubated for 72 hrs by MTT assay. The class given is functional, cell-based. As to conditions: PC-3, 72 h.
Another series relates to MDA-MB-231. As to the kind of experiment: Cytotoxicity against human MDA-MB-231 cells incubated for 72 hrs by MTT assay. The class given is functional, cell-based. As to conditions: MDA-MB-231, 72 h.
Series [17] in a line: Selectivity index, ratio of IC50 for cytotoxicity against chinese hamster V79 cells to IC50 for cytotoxicity against human MDA-MB-231 cells. The conditions noted are these: V79 cells versus MDA-MB-231 cells, read-out: Ratio IC50. The class given is toxicity, cell-based.
The nature of series [18]: Cytotoxicity against human HaCaT cells incubated for 72 hrs by MTT assay. Format: toxicity, cell-based.
For another series, the system named is Pseudomonas aeruginosa. As to the kind of experiment: Antimicrobial activity against Pseudomonas aeruginosa ATCC 15442 incubated for 18 hrs by twofold microdilution method. The class given is functional.
For a further series, the system named is Escherichia coli. Nature of the series: Antimicrobial activity against Escherichia coli ATCC 25922 incubated for 18 hrs by twofold microdilution method. The class given is functional.

In general, MIC refers to the least concentration at which growth counts as inhibited. Lower therefore signals a more susceptible organism. What is called IC50 is the point on the concentration scale where inhibition reaches its midpoint. In the case of `CC[C@@H](C(=O)[C@@H](C)[C@@H](O)[C@H](C)[C@@H]1O[C@@H]([C@@H](CC)C(=O)OCCCCCC[P+](c2ccc(C)cc2)(c2ccc(C)cc2)c2ccc(C)cc2)CC[C@@H]1C)[C@H]1O[C@]2(C=C[C@@H](O)[C@]3(CC[C@@](C)([C@H]4CC[C@](O)(CC)[C@H](C)O4)O3)O2)[C@H](C)C[C@@H]1C.[Br-]`, the MIC was determined as 16 µg/mL in the series on Staphylococcus aureus [1]; 8 µg/mL with Staphylococcus aureus [7]; 8 µg/mL against Staphylococcus aureus [10]; 16 µg/mL in series [12]; 8 µg/mL in the series on Staphylococcus aureus [13]; 16 µg/mL in [16]. Further, the MIC in the series on Pseudomonas aeruginosa and in the series with Escherichia coli was above 256 µg/mL throughout. Also, the selectivity ratio in [2] stood at 0.9; in series [3], 1.7; in [4] it was 1.1; in series [5], 0.7; in series [6] it was 0.4; in series [8], 0.7. Moreover, the selectivity ratio in series [9] amounted to 1.5; in series [14], 1.3; in [15], 1.1; in series [17] it was 0.8. In addition, the IC50 in the series with SW480 worked out at 610 nM; in the series with A549 it was 980 nM; in the series on SW-620, 720 nM; in the series on PC-3, 1580 nM; with MDA-MB-231, 830 nM. The figures for the IC50 at 72 h in series [11] and in [18] were 670 nM and 1050 nM, respectively.
In the case of `CCCC[P+](CCCC)(CCCC)CCCCCCOC(=O)[C@H](CC)[C@H]1CC[C@H](C)[C@H]([C@@H](C)[C@H](O)[C@H](C)C(=O)[C@H](CC)[C@H]2O[C@]3(C=C[C@@H](O)[C@]4(CC[C@@](C)([C@H]5CC[C@](O)(CC)[C@H](C)O5)O4)O3)[C@H](C)C[C@@H]2C)O1.[Br-]`, the MIC (in the series on Staphylococcus aureus [1]; against Staphylococcus aureus [7]; with Staphylococcus aureus [10]; in series [12]; with Staphylococcus aureus [13]; in [16]) was 2 µg/mL each time. Moreover, the MIC against Pseudomonas aeruginosa and against Escherichia coli was above 256 µg/mL throughout. In addition, the selectivity ratio in [2] was found to be 1; in series [3], 1.2; in series [4] it was 0.6; in series [5], 0.2; in [6], 0.2; in series [8], 0.6. Besides, the selectivity ratio in series [9] was found to be 0.9; in series [14], 0.6; in series [15] it was 1.3; in series [17], 0.6. In addition, the IC50 with SW480 is 500 nM; with A549, 1050 nM; in the series with SW-620, 670 nM; in the series on PC-3 it was 2890 nM; in the series with MDA-MB-231 it was 1020 nM. In addition, the figures for the IC50 at 72 h in [11] and in series [18] were 650 nM and 620 nM, respectively.
For the molecule `CC[C@@H](C(=O)[C@@H](C)[C@@H](O)[C@H](C)[C@@H]1O[C@@H]([C@@H](CC)C(=O)OCCCC[P+](c2ccccc2OC)(c2ccccc2OC)c2ccccc2OC)CC[C@@H]1C)[C@H]1O[C@]2(C=C[C@@H](O)[C@]3(CC[C@@](C)([C@H]4CC[C@](O)(CC)[C@H](C)O4)O3)O2)[C@H](C)C[C@@H]1C.[Br-]`, the MIC (against Staphylococcus aureus [1]; in the series on Staphylococcus aureus [7]; with Staphylococcus aureus [10]; in series [12]; in the series on Staphylococcus aureus [13]; in [16]) was 2 µg/mL each time. Besides, the MIC in the series on Pseudomonas aeruginosa and against Escherichia coli was 256 µg/mL each time. Also, the selectivity ratio in series [2] amounted to 0.5; in [3], 1.7; in series [4], 1.3; in series [5] it was 1.1; in [6], 0.7; in [8] it was 0.9. Also, the selectivity ratio amounted to 0.8 in series [9], 1.3 in series [14], 1.1 in series [15] and 0.9 in series [17]. The IC50 stood at 560 nM in the series with SW480; 700 nM in the series with A549; 1250 nM in the series with SW-620; 880 nM with PC-3; 740 nM in the series on MDA-MB-231. Also, the IC50 at 72 h amounted to 640 nM in [11] and 940 nM in series [18].
Take `COc1cccc2c1C(=O)c1c(O)c3c(c(O)c1C2=O)C[C@@](O)(C(=O)CO)C[C@@H]3O[C@H]1C[C@H](N)[C@H](O)[C@H](C)O1` [DOXORUBICIN]: the IC50 with A549 was 630 nM; in the series on MDA-MB-231 it was 830 nM. In [11], this molecule gave an IC50 at 72 h of 2010 nM.
For `CC[C@@H](C(=O)[C@@H](C)[C@@H](O)[C@H](C)[C@@H]1O[C@@H]([C@@H](CC)C(=O)OCCCCCC[P+](c2ccc(OC)cc2)(c2ccc(OC)cc2)c2ccc(OC)cc2)CC[C@@H]1C)[C@H]1O[C@]2(C=C[C@@H](O)[C@]3(CC[C@@](C)([C@H]4CC[C@](O)(CC)[C@H](C)O4)O3)O2)[C@H](C)C[C@@H]1C.[Br-]`, the MIC is 8 µg/mL against Staphylococcus aureus [1]; 4 µg/mL against Staphylococcus aureus [7]; 4 µg/mL in the series with Staphylococcus aureus [10]; 8 µg/mL in [12]; 8 µg/mL against Staphylococcus aureus [13]; 8 µg/mL in series [16]. For the same molecule, the MIC against Pseudomonas aeruginosa and in the series on Escherichia coli was above 256 µg/mL in each case. The selectivity ratio worked out at 0.7 in series [2]; 1.2 in [3]; 0.7 in series [4]; 0.5 in [5]; 0.4 in [6]; 0.7 in series [8]. The selectivity ratio in series [9] amounted to 0.8; in [14], 1.1; in series [15], 1.1; in [17] it was 1. Also, the IC50 was determined as 530 nM with SW480; 920 nM with A549; 810 nM in the series with SW-620; 1400 nM in the series with PC-3; 600 nM in the series with MDA-MB-231. Also, the IC50 at 72 h in [11] was 600 nM; in [18], 630 nM.
`CC[C@@H](C(=O)[C@@H](C)[C@@H](O)[C@H](C)[C@@H]1O[C@@H]([C@@H](CC)C(=O)OCCCCCC[P+](c2ccccc2)(c2ccccc2)c2ccc(N(C)C)cc2)CC[C@@H]1C)[C@H]1O[C@]2(C=C[C@@H](O)[C@]3(CC[C@@](C)([C@H]4CC[C@](O)(CC)[C@H](C)O4)O3)O2)[C@H](C)C[C@@H]1C.[Br-]`: the MIC (against Staphylococcus aureus [1]; in the series with Staphylococcus aureus [7]; against Staphylococcus aureus [10]; in series [12]; with Staphylococcus aureus [13]; in series [16]) was 8 µg/mL in each case. Further, the MIC against Pseudomonas aeruginosa and against Escherichia coli was above 256 µg/mL in each case. Besides, the selectivity ratio amounted to 0.8 in [2]; 1.2 in series [3]; 0.8 in series [4]; 0.5 in series [5]; 0.4 in series [6]; 0.7 in series [8]. Moreover, the selectivity ratio in series [9] was found to be 1; in series [14], 0.8; in series [15], 1; in series [17], 0.7. The IC50 in the series on SW480 came out at 580 nM; in the series on A549, 850 nM; in the series on SW-620, 710 nM; in the series on PC-3 it was 1470 nM; in the series on MDA-MB-231 it was 880 nM. For the same molecule, the IC50 at 72 h in series [11] turned out to be 600 nM; in series [18] it was 710 nM.
On to `O=C(O)c1cn(C2CC2)c2cc(N3CCNCC3)c(F)cc2c1=O` [CIPROFLOXACIN], for which the MIC was 0.25 µg/mL (≈ 0.754 µM) in the series on Staphylococcus aureus [1]; 0.125 µg/mL (≈ 0.377 µM) in [12]; 0.25 µg/mL (≈ 0.754 µM) in the series with Staphylococcus aureus [13]; 0.125 µg/mL (≈ 0.377 µM) in series [16]; 0.007 µg/mL (≈ 0.0211 µM) against Escherichia coli.

The values are drawn from ChEMBL document CHEMBL6120978, “Anticancer activity of salinomycin quaternary phosphonium salts” (Eur J Med Chem, 2025).
